The text below walks through data of the Kinase Knowledgebase extract (Sharma et al. 2016).

The target in assay [1] is PIK3CA (human) (UniProt P42336). The experiment in a line: Enzyme Assay.
The target in assay [2] is PIK3CB (Human) (UniProt P42338). The experiment in a line: Enzyme Assay.
Assay [3] addresses PIK3CD (Human) (UniProt O00329). The experiment in a line: Enzyme Assay.
In a further assay the target is PIK3CG (human) (UniProt P48736). Briefly: Enzyme Assay.
Assay [4] has as its target PIK3CA (human) (UniProt P42336). The experiment in a line: Cell-Based Assay. The settings on record: rat-1.
For assay [5], the target named is PIK3CA (human), P42336 [H1047R]. Briefly: Cell-Based Assay. The following applies: detroit562.
Assay [6] addresses PIK3CB (Human) (UniProt P42338). Briefly: Cell-Based Assay. The settings on record: rat-1.
The target in assay [7] is PIK3CD (Human) (UniProt O00329). Briefly: Cell-Based Assay. The settings on record: rat-1.

The structures appear in SMILES notation. Where “and” joins values, the source holds several entries; their conditions need not be identical. Equal values may be shown once. A value given as a limit tells only on which side of the number the result lay.

Chain of PIK3CA (human), P42336 [H1047R] (P42336 whole entry H1047R, looked up): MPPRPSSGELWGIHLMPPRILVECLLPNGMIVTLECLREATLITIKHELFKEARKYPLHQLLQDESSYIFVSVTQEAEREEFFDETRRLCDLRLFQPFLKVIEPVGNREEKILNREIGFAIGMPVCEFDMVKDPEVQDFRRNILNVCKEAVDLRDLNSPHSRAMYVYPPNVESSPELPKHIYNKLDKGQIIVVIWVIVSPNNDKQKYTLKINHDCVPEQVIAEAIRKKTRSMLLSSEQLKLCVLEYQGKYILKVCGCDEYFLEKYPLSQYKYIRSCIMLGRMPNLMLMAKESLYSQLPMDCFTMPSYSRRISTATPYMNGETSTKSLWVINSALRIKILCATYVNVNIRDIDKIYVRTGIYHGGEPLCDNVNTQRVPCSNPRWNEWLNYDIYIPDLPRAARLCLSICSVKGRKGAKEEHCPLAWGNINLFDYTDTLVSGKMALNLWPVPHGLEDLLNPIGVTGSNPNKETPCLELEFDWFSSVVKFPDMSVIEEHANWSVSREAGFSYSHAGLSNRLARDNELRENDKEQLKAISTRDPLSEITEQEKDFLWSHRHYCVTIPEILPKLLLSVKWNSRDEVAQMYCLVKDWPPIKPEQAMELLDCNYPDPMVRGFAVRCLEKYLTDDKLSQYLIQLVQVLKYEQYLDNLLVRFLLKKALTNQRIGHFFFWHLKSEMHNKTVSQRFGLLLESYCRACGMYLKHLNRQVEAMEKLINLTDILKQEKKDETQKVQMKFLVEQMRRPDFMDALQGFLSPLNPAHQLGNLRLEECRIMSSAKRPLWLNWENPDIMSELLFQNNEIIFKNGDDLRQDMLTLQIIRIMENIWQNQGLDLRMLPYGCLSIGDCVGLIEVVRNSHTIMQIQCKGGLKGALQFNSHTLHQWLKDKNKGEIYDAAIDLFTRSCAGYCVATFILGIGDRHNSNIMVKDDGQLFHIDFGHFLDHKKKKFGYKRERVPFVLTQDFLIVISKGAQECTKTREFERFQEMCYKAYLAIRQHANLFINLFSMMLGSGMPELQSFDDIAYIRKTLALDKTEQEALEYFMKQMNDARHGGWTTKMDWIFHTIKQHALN
Chain of PIK3CD (Human) (O00329 whole entry, looked up): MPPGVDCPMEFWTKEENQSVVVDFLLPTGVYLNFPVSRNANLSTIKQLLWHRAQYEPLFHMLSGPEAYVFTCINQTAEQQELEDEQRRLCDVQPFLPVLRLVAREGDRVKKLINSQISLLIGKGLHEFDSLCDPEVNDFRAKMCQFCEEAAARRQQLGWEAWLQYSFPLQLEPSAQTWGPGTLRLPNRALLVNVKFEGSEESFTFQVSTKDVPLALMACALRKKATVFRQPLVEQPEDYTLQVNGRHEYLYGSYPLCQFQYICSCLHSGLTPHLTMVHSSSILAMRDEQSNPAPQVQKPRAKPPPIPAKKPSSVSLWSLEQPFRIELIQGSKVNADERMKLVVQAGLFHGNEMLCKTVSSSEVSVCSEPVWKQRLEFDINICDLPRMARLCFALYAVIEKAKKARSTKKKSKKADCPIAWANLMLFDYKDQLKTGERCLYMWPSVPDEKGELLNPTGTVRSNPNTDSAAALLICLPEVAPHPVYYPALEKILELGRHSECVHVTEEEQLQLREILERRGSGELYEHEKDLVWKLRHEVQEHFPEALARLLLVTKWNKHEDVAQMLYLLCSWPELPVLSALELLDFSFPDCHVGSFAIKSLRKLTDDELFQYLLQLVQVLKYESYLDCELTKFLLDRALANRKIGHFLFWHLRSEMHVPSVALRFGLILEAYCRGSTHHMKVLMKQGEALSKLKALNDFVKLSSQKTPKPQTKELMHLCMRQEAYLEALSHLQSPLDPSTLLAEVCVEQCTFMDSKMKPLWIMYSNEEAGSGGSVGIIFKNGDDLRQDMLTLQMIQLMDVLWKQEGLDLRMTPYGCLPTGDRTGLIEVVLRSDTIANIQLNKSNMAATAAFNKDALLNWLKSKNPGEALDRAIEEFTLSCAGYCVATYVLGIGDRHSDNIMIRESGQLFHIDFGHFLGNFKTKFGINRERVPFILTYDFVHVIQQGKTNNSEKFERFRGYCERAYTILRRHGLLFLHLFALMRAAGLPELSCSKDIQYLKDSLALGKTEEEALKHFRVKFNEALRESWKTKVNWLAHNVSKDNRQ
Chain of PIK3CB (Human) (P42338 whole entry, looked up): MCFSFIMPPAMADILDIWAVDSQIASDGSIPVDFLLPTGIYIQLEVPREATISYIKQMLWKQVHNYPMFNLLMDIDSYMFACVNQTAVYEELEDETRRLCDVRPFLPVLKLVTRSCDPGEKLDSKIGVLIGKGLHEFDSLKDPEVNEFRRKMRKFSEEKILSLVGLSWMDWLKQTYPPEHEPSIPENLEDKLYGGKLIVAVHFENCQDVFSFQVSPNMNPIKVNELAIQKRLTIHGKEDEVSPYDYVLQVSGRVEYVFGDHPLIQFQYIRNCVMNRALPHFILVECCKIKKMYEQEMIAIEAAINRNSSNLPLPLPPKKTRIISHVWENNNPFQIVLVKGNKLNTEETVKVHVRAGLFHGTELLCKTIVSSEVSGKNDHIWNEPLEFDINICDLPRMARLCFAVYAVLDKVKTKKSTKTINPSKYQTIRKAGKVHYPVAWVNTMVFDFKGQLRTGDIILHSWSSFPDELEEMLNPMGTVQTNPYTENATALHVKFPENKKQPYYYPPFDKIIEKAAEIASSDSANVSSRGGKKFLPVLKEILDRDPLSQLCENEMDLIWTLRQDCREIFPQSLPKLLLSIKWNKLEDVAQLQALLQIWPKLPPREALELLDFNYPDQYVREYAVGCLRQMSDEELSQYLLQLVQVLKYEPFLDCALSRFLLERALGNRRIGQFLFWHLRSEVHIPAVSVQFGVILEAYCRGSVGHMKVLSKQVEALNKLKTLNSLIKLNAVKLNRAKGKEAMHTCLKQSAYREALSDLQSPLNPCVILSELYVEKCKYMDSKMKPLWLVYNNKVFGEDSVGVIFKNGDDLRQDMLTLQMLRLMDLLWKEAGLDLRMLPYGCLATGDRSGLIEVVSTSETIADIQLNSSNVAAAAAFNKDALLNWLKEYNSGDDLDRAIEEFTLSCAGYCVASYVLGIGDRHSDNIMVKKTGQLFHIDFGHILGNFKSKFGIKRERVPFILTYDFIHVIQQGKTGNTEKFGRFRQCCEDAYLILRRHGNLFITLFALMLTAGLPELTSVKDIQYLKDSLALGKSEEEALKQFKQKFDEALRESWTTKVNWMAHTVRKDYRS
Chain of PIK3CG (human) (P48736 whole entry, looked up): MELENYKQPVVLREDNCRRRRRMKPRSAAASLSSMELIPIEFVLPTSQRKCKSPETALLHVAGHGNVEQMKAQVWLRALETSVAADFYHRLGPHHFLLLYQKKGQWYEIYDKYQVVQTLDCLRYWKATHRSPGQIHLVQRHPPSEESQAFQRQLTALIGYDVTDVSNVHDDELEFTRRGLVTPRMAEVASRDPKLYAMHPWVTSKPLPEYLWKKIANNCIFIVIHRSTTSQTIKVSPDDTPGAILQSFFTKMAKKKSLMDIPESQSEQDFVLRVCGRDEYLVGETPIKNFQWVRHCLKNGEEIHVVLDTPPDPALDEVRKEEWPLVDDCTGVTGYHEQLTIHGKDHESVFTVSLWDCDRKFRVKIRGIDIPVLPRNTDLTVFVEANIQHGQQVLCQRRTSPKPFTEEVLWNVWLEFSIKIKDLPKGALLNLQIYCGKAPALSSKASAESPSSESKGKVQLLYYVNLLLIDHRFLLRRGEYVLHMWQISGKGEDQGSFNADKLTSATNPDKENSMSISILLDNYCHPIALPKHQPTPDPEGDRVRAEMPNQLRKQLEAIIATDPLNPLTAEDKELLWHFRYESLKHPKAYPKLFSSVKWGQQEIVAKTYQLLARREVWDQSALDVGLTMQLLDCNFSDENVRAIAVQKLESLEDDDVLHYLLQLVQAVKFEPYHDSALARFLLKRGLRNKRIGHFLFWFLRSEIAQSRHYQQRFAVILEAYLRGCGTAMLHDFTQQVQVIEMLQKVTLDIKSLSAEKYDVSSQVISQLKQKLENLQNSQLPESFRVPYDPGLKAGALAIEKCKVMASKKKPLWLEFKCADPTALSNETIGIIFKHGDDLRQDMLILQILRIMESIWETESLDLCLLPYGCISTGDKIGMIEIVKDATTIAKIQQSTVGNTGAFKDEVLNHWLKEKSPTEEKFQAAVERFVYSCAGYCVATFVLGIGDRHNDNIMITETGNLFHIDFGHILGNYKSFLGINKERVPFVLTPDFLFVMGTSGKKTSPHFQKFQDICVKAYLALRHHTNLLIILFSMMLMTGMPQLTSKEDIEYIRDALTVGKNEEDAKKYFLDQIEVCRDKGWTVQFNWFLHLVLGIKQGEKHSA
Chain of PIK3CA (human) (P42336 whole entry, looked up): as the sequence (P42336 whole entry H1047R, looked up) above, with R1047H counted along it

As usually defined, the IC50 is the point on the concentration scale where inhibition reaches its midpoint. A high value points to lower potency. Regarding `Nc1ncc(-c2cc(N3CCOC(c4ccccc4)C3)nc(N3CCOCC3)n2)c(C(F)(F)F)n1` (configuration not stated), the IC50 against PIK3CA (human) [1] is 0.015 µM; on PIK3CB (Human) [2] it was 0.027 µM; at PIK3CD (Human) [3], 0.11 µM; against PIK3CG (human) it was 0.17 µM; at PIK3CA (human) [4], > 10 µM; in assay [5], 2.39 µM and 1.37 µM. Further, the IC50 was > 10 µM against PIK3CB (Human) [6] and 0.105 µM on PIK3CD (Human) [7].

As to `CC[C@H]1[C@H](c2ccc(OC)cc2)OC(=O)N1c1cc(-c2cnc(N)nc2C(F)(F)F)nc(N2CCOCC2)n1`, the IC50 worked out at 0.096 µM at PIK3CB (Human) [2] and 5.8 µM at PIK3CG (human).

Consider `Nc1ncc(-c2cc(N3C(=O)O[C@@H](c4ccc(OCCO)cc4)[C@@H]3CO)nc(N3CCOCC3)n2)c(C(F)(F)F)n1`, for which the IC50 against PIK3CB (Human) [6] and at PIK3CD (Human) [7] was < 0.003 µM each time.

With `Nc1ncc(-c2cc(N3CCOCC3)nc(N3CCOCC3)n2)c(C(F)(F)F)n1`, the IC50 at PIK3CD (Human) [3] worked out at 0.024 µM; on PIK3CG (human), 0.315 µM; against PIK3CD (Human) [7] it was 0.139 µM.

Regarding `Nc1cc(C(F)(F)F)c(-c2cc(N3CCCCC3=O)nc(N3CCOCC3)n2)cn1`, the IC50 at PIK3CA (human) [1] was 0.094 µM; against PIK3CB (Human) [2], 0.237 µM; against PIK3CD (Human) [3] it was 0.848 µM; at PIK3CG (human), 3.36 µM; against PIK3CA (human) [4] it was 0.369 µM; in assay [5], 4.41 µM and 3.08 µM. Besides, the IC50 against PIK3CB (Human) [6] came out at 1.54 µM; on PIK3CD (Human) [7] it was 1.04 µM.

With `Nc1cc(C(F)(F)F)c(-c2cc(N3CCN(c4ccccc4)C3=O)nc(N3CCOCC3)n2)cn1`, the IC50 is 0.091 µM against PIK3CA (human) [1]; 0.236 µM against PIK3CB (Human) [2]; 1.98 µM against PIK3CD (Human) [3]; 7.35 µM at PIK3CG (human); 0.606 µM on PIK3CA (human) [4]; 4.55 µM and 2.81 µM in assay [5]. Besides, the values for the IC50 at PIK3CB (Human) [6] and against PIK3CD (Human) [7] were 1.58 µM and 1.47 µM, respectively.

For `COCCOc1ccc([C@@H]2OC(=O)N(c3cc(-c4cnc(N)nc4C(F)(F)F)nc(N4CCOCC4)n3)[C@H]2CO)cc1`, on PIK3CD (Human) [7], the IC50 was 0.004 µM.

For `CC[C@@H]1[C@@H](c2cccc(OC)c2)OC(=O)N1c1cc(-c2cnc(N)nc2C(F)(F)F)nc(N2CCOCC2)n1`, at PIK3CG (human), the IC50 worked out at 7 µM.

On to `Nc1cc(C(F)(F)F)c(-c2cc(N3CCC(=O)CC3)nc(N3CCOCC3)n2)cn1`, for which the IC50 worked out at 0.327 µM on PIK3CA (human) [1]; 1.07 µM on PIK3CB (Human) [2]; 1.22 µM on PIK3CD (Human) [3]; 4.46 µM at PIK3CG (human); 1.73 µM at PIK3CA (human) [4]; 3.3 µM in assay [5]. Moreover, the IC50 worked out at 5.31 µM on PIK3CB (Human) [6] and 6.54 µM against PIK3CD (Human) [7].

`C[C@H]1[C@H](c2nccs2)OC(=O)N1c1cc(-c2cnc(N)nc2C(F)(F)F)nc(N2CCOCC2)n1`: the IC50 in assay [5] is 0.44 µM and 0.598 µM.
